Target: SULT1A1 (Homo sapiens, UniProt P50225)
Assay: inhibition of sulfonation of […]C-p-nitrophenol by recombinant enzyme
Assay type: biochemical

Sequence of SULT1A1 (P50225 whole entry): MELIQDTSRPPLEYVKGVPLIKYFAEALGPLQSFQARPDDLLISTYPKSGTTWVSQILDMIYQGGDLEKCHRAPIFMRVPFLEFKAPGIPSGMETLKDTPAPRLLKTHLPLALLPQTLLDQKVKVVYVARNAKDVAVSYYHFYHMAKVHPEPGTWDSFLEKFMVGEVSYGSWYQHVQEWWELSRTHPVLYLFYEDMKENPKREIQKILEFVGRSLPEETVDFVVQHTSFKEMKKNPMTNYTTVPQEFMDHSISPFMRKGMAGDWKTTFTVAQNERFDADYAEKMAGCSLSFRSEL

`Cc1ccc(-c2cc(C(F)(F)F)nn2-c2ccc(S(N)(=O)=O)cc2)cc1` [celecoxib] gave an IC50 of 2.1 µM.
